This is an account of results in patent US20210052701A1, “Methods of Treating Vascular Leakage Using CXCL12 Peptides” (The Medical College of Wisconsin, Inc., priority 2018, published 2021).

Assay [1] concerns hPPAEC. The assay can be described thus: In vitro vascular permeability assay (FITC-dextran), hPPAEC monolayer, CXCR4/ACKR3 ligands without thrombin. It is filed as cell-based, human. The conditions noted are these: 50 nM ligand for 10 min, then FITC-dextran; no thrombin. How it is done: FIGS. 1A-1B show expression of CXCR4, ACKR3 and CXCR4:ACKR3 heteromers on hPPAEC and effects of CXCR4/ACKR3 ligands on hPPAEC monolayer permeability. (A) Detection of CXCR4, ACKR3 and CXCR4:ACKR3 heteromers on hPPAEC by PLA. Typical PLA images for the detection of individual receptors and CXCR4:ACKR3 heteromers. Images show merged PLA/40,6-diamidino-2-phenylindole dihydrochloride (DAPI) signals. Ctrl: Omission of one secondary antibody. (B) hPPAEC were grown to a confluent monolayer on collagen-coated permeable membranes. Cells were then exposed to vehicle or 50 nM of CXCR4/ACKR3 ligands for 10 minutes, as indicated, followed by the addition of FITC-dextran. Endothelial permeability was assessed by measuring the amount of FITC-dextran that permeated through the cell monolayer. N=3 in quadruplicate. No cells: 100% permeability, open squares. RFU: Relative fluorescence units. *: p<0.05 vs. vehicle (2-way ANOVA/Bonferroni's multiple comparison post hoc test).
Cells and cell lines—Human primary pulmonary artery endothelial cells (hPPAEC) (ATCC, PCS-100-022) and the human lung microvascular endothelial cell line HULEC-5a (ATCC, CRL-3244) were cultured in vascular cell basal medium (ATCC, PCS-100-030) with endothelial cell growth kit-VEGF (ATCC, PCS-100-041). The HTLA cell line, a HEK293 cell line stably expressing a tTA-dependent luciferase reporter and a β-arrestin2-TEV fusion gene, was generously provided by the laboratory of Dr. Bryan Roth and maintained in high glucose Dulbecco's Modified Eagle's Medium supplemented with 10% (vol/vol) FBS, 1× non-essential amino acids, 100 U/mL penicillin, 100 μg/mL streptomycin, 50 μg/mL hygromycin B, and 2 μg/mL puromycin. All cells were cultured at 37° C., 5% CO2 in a humidified atmosphere.
In vitro vascular permeability assays—Permeability assays were obtained from Millipore (ECM642) and performed as per manufacturer's instructions. In brief, 96-well collagen-coated permeability assay plates were pre-hydrated for 15 min, 5×10^5 cells were seeded on each well and grown to a confluent monolayer for 48 hours. Fluorescein isothiocyanate (FITC)-dextran (20 μg/mL) was then added on top of the monolayer and the amount of FITC-dextran that permeated through the monolayer was quantified by measuring fluorescence in a Synergy 2 Multi-mode Microplate Reader (BioTek, Winooski, Vt.) at various time points over a 255 min time period.

The subject of assay [2] is hPPAEC. The assay can be described thus: Effects of CXCR4 agonists / CXCL12 variants on thrombin-induced impairment of hPPAEC monolayer permeability. It counts as cell-based, human. In outline:
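Confluent hPPAEC monolayers on collagen-coated permeable membranes were exposed to 35 nM thrombin; 10 min later, agonists or CXCL12 variants (0.05–50 nM) were added, ± AMD3100 10 μM. FITC-dextran (20 μg/mL) crossing the monolayer was read by fluorescence over 255 min. % inhibition of hyperpermeability was taken at 255 min; N=3 in quadruplicate.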

Assay [3] concerns the target CXCL12 (Homo sapiens, UniProt P48061). The conditions noted are these: read-out: dimerization Kd; cited from earlier work.

Entries after “also recorded” stand apart in the source; their conditions may differ.

Sequence of CXCL12 (P48061 22-89 limits assumed): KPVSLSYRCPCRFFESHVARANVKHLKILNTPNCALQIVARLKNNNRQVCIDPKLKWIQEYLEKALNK

Broadly, the Kd is the equilibrium constant for the complex coming apart. In the case of “CXCL12: Wild-type CXCL12 (SEQ ID NO:1), cognate agonist of CXCR4 and ACKR3”, in assay [1], the “effect on hPPAEC monolayer permeability” value is listed as “enhanced hPPAEC barrier function”. In assay [2] (100 nM for 10 min, then thrombin (50 nM)), the “effect of pre-treatment on thrombin-induced hyper-permeability of hPPAEC” value was “significantly attenuated thrombin-induced hyper-permeability of hPPAEC; also recorded: more efficacious than ubiquitin”. For the same substance, the “effect on thrombin-induced permeability of hPPAEC when added after thrombin” value in assay [2] (thrombin 35 nM, after 10 min CXCL12 or ubiquitin 50 nM, AMD3100 10 μM) was “significantly attenuated thrombin-induced permeability of hPPAEC”. For the same substance, the Kd in assay [3] was 140 µM.
